ChEMBL document CHEMBL1139339, “Alantrypinone and its derivatives: synthesis and antagonist activity toward insect GABA receptors” (2009)
Calls of active or inactive are those of the source. The rule behind the calls is not given here.

Experiments:
Neuron = assay: Inhibition of GABA-induced inward current in Periplaneta americana L neuron at 10 uM for 5 min by whole-cell patch clamp method; type: functional
Musca domestica = assay: Displacement of [3H]EBOB from housefly GABA receptor

`C[C@@]12NC(=O)[C@H](C[C@]13C(=O)Nc1ccccc13)n1c2nc2ccccc2c1=O` was tested, and the inhibition at 10 µM (Neuron) was 90.3%.

For `CC(C)C[C@@]12NC(=O)[C@H](C[C@@]13C(=O)Nc1ccccc13)n1c2nc2ccccc2c1=O` (racemic), the Activity (Musca domestica) was “Active”.

For `CC(C)C[C@@]12NC(=O)[C@H](C[C@]13C(=O)Nc1ccccc13)n1c2nc2ccccc2c1=O` (racemic), the Activity (Musca domestica) was “Active”.

`CC(C)[C@@]12NC(=O)[C@H](C[C@@]13C(=O)Nc1ccccc13)n1c2nc2ccccc2c1=O` (racemic) was tested, and the Activity (Musca domestica) was “Active”.

`CC(C)[C@@]12NC(=O)[C@H](C[C@]13C(=O)Nc1ccccc13)n1c2nc2ccccc2c1=O` (racemic) was tested, and the Activity (Musca domestica) was “Active”.

For `CN1C(=O)[C@@H]2C[C@@]3(C(=O)N(Cc4ccccc4)c4ccccc43)[C@]1(C)c1nc3ccccc3c(=O)n12` (racemic), the Activity (Musca domestica) was “Active”.

With `CN1C(=O)[C@@H]2C[C@]3(C(=O)N(Cc4ccccc4)c4ccccc43)[C@]1(C)c1nc3ccccc3c(=O)n12` (racemic) the Activity (Musca domestica) was “Active”.

In the case of `CN1C(=O)[C@@H]2C[C@]3(C(=O)Nc4ccccc43)[C@]1(C)c1nc3ccccc3c(=O)n12` (racemic), the Activity (Musca domestica) is reported as “Active”.

In the case of `CN1C(=O)[C@@H]2[C@H]3C(=O)N(c4ccccc4)C(=O)[C@H]3[C@]1(C)c1nc3ccccc3c(=O)n12` (racemic), the Activity (Musca domestica) is reported as “Active”.

`CN1C(=O)[C@@]2(C[C@H]3C(=O)N(C)[C@@]2(C)c2nc4ccccc4c(=O)n23)c2ccccc21` (racemic) was tested, and the Activity (Musca domestica) was “Active”.

With `CN1C(=O)[C@@]2(C[C@H]3C(=O)N[C@@]2(C)c2nc4ccccc4c(=O)n23)c2ccccc21` (racemic) the Activity (Musca domestica) was “Active”.

For `CN1C(=O)[C@]2(C[C@H]3C(=O)N(C)[C@@]2(C)c2nc4ccccc4c(=O)n23)c2ccccc21` (racemic), the Activity (Musca domestica) was “Active”.

With `CN1C(=O)[C@]2(C[C@H]3C(=O)N[C@@]2(C)c2nc4ccccc4c(=O)n23)c2ccccc21` (racemic) the Activity (Musca domestica) was “Active”.

With `C[C@@]12NC(=O)[C@H](C[C@@]13C(=O)N(Cc1ccccc1)c1ccccc13)n1c2nc2ccccc2c1=O` (racemic) the Activity (Musca domestica) was “Active”.

For `C[C@@]12NC(=O)[C@H](C[C@@]13C(=O)Nc1ccc(Cl)cc13)n1c2nc2ccc(Cl)cc2c1=O` (racemic), the Activity (Musca domestica) was “Active”.

`C[C@@]12NC(=O)[C@H](C[C@@]13C(=O)Nc1ccc(Cl)cc13)n1c2nc2ccccc2c1=O` (racemic) was tested, and the Activity (Musca domestica) was “Active”.

With `C[C@@]12NC(=O)[C@H](C[C@@]13C(=O)Nc1ccccc13)n1c2nc2cc(Cl)ccc2c1=O` (racemic) the Activity (Musca domestica) was “Active”.

For `C[C@@]12NC(=O)[C@H](C[C@@]13C(=O)Nc1ccccc13)n1c2nc2ccc(Cl)cc2c1=O` (racemic), the Activity (Musca domestica) was “Active”.

`C[C@@]12NC(=O)[C@H](C[C@@]13C(=O)Nc1ccccc13)n1c2nc2ccc(F)cc2c1=O` (racemic) was tested, and the Activity (Musca domestica) was “Active”.

In the case of `C[C@@]12NC(=O)[C@H](C[C@@]13C(=O)Nc1ccccc13)n1c2nc2ccccc2c1=O` (racemic), the Activity (Musca domestica) is reported as “Active”.

`C[C@@]12NC(=O)[C@H](C[C@]13C(=O)N(Cc1ccccc1)c1ccccc13)n1c2nc2ccccc2c1=O` (racemic) was tested, and the Activity (Musca domestica) was “Active”.

With `C[C@@]12NC(=O)[C@H](C[C@]13C(=O)Nc1ccc(Cl)cc13)n1c2nc2ccc(Cl)cc2c1=O` (racemic) the Activity (Musca domestica) was “Active”.

`C[C@@]12NC(=O)[C@H](C[C@]13C(=O)Nc1ccc(Cl)cc13)n1c2nc2ccccc2c1=O` (racemic) was tested, and the Activity (Musca domestica) was “Active”.

`C[C@@]12NC(=O)[C@H](C[C@]13C(=O)Nc1ccccc13)n1c2nc2cc(Cl)ccc2c1=O` (racemic) was tested, and the Activity (Musca domestica) was “Active”.

In the case of `C[C@@]12NC(=O)[C@H](C[C@]13C(=O)Nc1ccccc13)n1c2nc2ccc(Cl)cc2c1=O` (racemic), the Activity (Musca domestica) is reported as “Active”.

With `C[C@@]12NC(=O)[C@H](C[C@]13C(=O)Nc1ccccc13)n1c2nc2ccc(F)cc2c1=O` (racemic) the Activity (Musca domestica) was “Active”.

`C[C@@]12NC(=O)[C@H](C[C@]13C(=O)Nc1ccccc13)n1c2nc2ccccc2c1=O` (racemic) was tested, and the Activity (Musca domestica) was “Active”.

In the case of `C[C@@]12NC(=O)[C@H]([C@H]3C(=O)N(c4ccccc4)C(=O)[C@H]31)n1c2nc2ccccc2c1=O` (racemic), the Activity (Musca domestica) is reported as “Active”.

With `O=C1N[C@@]2(Cc3ccccc3)c3nc4ccccc4c(=O)n3[C@H]1C[C@@]21C(=O)Nc2ccccc21` (racemic) the Activity (Musca domestica) was “Active”.

`O=C1N[C@@]2(Cc3ccccc3)c3nc4ccccc4c(=O)n3[C@H]1C[C@]21C(=O)Nc2ccccc21` (racemic) was tested, and the Activity (Musca domestica) was “Active”.
